Earlier results as cited in US20100135984A1, “Anti-inflammatory compositions and methods” (Searete LLC, a limited liability corporation of the State …, priority 2008, published 2010).
Blank lines part the entries; values can stand above or below the compound they belong to.

Key:
[1] = mice
[2] = target: Fyn (Homo sapiens, UniProt P06241); settings: at nanomolar concentrations
[3] = single agent, infused at 400 mg over one hour
[4] = system: aldehyde dehydrogenase
[5] = system: proteasome; settings: cultured breast cancer cells; copper-bound
[6] = system: Src family kinase

Fyn, sequence (P06241 whole entry, species assumed, the tested form may be a part): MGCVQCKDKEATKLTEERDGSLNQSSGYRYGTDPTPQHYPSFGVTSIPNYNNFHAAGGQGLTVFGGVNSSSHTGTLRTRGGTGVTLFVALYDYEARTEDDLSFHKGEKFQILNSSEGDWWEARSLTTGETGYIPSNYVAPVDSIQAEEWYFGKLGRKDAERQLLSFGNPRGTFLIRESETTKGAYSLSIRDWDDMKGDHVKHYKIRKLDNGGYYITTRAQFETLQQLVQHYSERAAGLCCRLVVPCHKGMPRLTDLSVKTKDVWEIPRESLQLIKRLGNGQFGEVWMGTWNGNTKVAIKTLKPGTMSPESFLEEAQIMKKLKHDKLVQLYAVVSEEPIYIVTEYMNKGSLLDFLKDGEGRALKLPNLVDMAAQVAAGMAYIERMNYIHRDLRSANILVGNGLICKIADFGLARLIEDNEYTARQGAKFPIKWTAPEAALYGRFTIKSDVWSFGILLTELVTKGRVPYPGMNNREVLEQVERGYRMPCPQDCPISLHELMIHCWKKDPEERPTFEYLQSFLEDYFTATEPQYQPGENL

Structure (SMILES): Cl.Cl.Nc1ccccc1Oc1ccc2c(N)nsc2c1 [Example M62812, 3-amino-6-(2-aminophenoxy)-1,2-benzisothiazole dihydrochloride]
prevention of lethal septic shock [1]: prevents lethal septic shock

Structure (SMILES): Cc1nc(Nc2ncc(C(=O)Nc3c(C)cccc3Cl)s2)cc(N2CCN(CCO)CC2)n1.O [dasatinib, N-(2-chloro-6-methylphenyl)-2-[[6-[4-(2-hydroxyethyl)-1-piperazinyl]-2-methyl-4-pyrimidinyl]amino]-5-thiazolecarboxamide, monohydrate]
inhibition of Fyn [2]: inhibits

Structure (SMILES): CCN(CC)CCCC(C)Nc1ccnc2cc(Cl)ccc12.O=P(O)(O)O.O=P(O)(O)O (stereo not drawn) [chloroquine phosphate, 7-chloro-4-[[4-(diethylamino)-1-methylbutyl]amino]quinoline phosphate (1:2)]
tolerability of infusion [3]: without complication

Structure (SMILES): CCN(CC)C(=S)SSC(=S)N(CC)CC [disulfiram, 1-(diethylthiocarbamoyldisulfanyl)-N,N-diethyl-methanethioamide]
inhibition of aldehyde dehydrogenase [4]: inhibits aldehyde dehydrogenase without toxicity | proteasomal activity [5]: inhibits proteasomal activity

inhibition of CpG-induced Src family kinase activation or its dependent cellular responses [6]: does not inhibit
Structure (SMILES): CCN(CC)CCCC(C)Nc1ccnc2cc(Cl)ccc12 (stereo not drawn) [Chloroquine]
